In patent publication US11702422B2, “Imidazopyridazines as modulators of IL-17” (Janssen Pharmaceutica NV, priority 2020, dated 2023):

Legend:
[1] = biological target: IL-17A(FLAG-Tagged): IL-17RA(His-Tagged) (Homo sapiens, UniProt Q16552, K93Q); test: IL-17A(FLAG-Tagged): IL-17RA(His-Tagged) Binding Disruption Eu-HTRF Assay; conditions: IL-17A/IL-17RA binding disruption, simple average if tested more than once
Procedure, shortened: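 IC50 comes from a one-site competition fit of the HTRF 665/620 nm ratio. Compound dilutions (2-fold, 22 points) were held 1 h rt with FLAG-tagged IL-17A dimer, then His-tagged IL-17RA plus Eu-cryptate anti-FLAG and D2 anti-His antibodies were added for 2 h rt.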

[2] = system: IL-17A-induced G-CSF production in human normal keratinocyte (NHK); test: NHK Assay: IL-17A-induced G-CSF production in human normal keratinocytes; type: cell-based; conditions: 24 h, adult normal human keratinocytes, IL-17A 5 ng/mL, simple average if tested more than once
Procedure, shortened: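 Adult normal human keratinocytes were seeded at 3000-4000 cells/well. Recombinant human IL-17A was pre-incubated 1 h at rt with titrated compound, then added to cells (final 5 ng/mL IL-17A, 0.2% DMSO, 5% FBS) for 24 h at 37° C. Supernatant G-CSF was measured by HTRF against a standard curve to give IC50.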

Chain of UniProt Q16552 (Q16552 with tags, fused parts or gaps K93Q): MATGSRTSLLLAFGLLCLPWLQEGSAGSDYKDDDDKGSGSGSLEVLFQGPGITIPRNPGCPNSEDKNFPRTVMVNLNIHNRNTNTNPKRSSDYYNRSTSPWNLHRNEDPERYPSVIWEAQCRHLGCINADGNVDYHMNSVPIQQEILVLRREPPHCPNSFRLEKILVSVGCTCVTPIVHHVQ

SMILES | IC50 [1] [nM] | IC50 ([2]; Homo sapiens, Keratinocyte) [nM] | IC50 [2] [nM]
O=C(CCC(F)(F)F)N[C@@H](c1cnn2cc([C@@H](NC(=O)c3ccnn3C(F)F)C3CCC(F)(F)CC3)nc2c1)C1CC1 [Example 67, N—((S)-(7-((R)-Cyclopropyl(4,4,4-trifluorobutanamido)methyl)imidazo[1,2-b]pyridazin-2-yl)(4,4-difluorocyclohexyl)methyl)-1-(difluoromethyl)-1H-pyrazole-5-carboxamide] | 82 | 180 | –
O=C(CCC(F)(F)F)N[C@@H](c1cnn2cc([C@@H](NC(=O)c3cccc(OCC(F)(F)F)c3)C3CCC(F)(F)CC3)nc2c1)C1CC1 [Example 174, N—((S)-(7-((R)-Cyclopropyl(4,4,4-trifluorobutanamido)methyl)imidazo[1,2-b]pyridazin-2-yl)(4,4-difluorocyclohexyl)methyl)-3-(2,2,2-trifluoroethoxy)benzamide] | 80 | 390 | –
O=C(CCC(F)(F)F)N[C@@H](c1cnn2cc([C@@H](NC(=O)[C@H]3C[C@H]3CF)C3CCC(F)(F)CC3)nc2c1)C1CC1 (relative stereo) [Example 364, (1S*,2R*)—N—((S)-(7-((R*)-Cyclopropyl(4,4,4-trifluorobutanamido)methyl)imidazo[1,2-b]pyridazin-2-yl)(4,4-difluorocyclohexyl)methyl)-2-(fluoromethyl)cyclopropane-1-carboxamide] | 2100 | > 20000 | –
Cc1cccc(C(=O)N[C@H](c2cn3ncc([C@H](NC(=O)CCC(F)(F)F)C4CC4)cc3n2)C2CCC(F)(F)CC2)n1 [Example 224, N—((S)-(7-((R)-Cyclopropyl(4,4,4-trifluorobutanamido)methyl)imidazo[1,2-b]pyridazin-2-yl)(4,4-difluorocyclohexyl)methyl)-6-methylpicolinamide] | 1700 | > 20000 | –
O=C(CCC(F)(F)F)N[C@@H](c1cnn2cc([C@@H](NC(=O)c3ccccc3C(F)F)C3CCC(F)(F)CC3)nc2c1)C1CC1 [Example 187, N—((S)-(7-((R)-Cyclopropyl(4,4,4-trifluorobutanamido)methyl)imidazo[1,2-b]pyridazin-2-yl)(4,4-difluorocyclohexyl)methyl)-2-(difluoromethyl)benzamide] | 260 | 730 | –
Cc1nonc1C(=O)N[C@H](c1cn2ncc([C@H](NC(=O)C(F)(F)CC3CC3)C3CC3)cc2n1)C1CCC(F)(F)CC1 [Example 339, N—((S)-(7-((R)-Cyclopropyl(3-cyclopropyl-2,2-difluoropropanamido)methyl)imidazo[1,2-b]pyridazin-2-yl)(4,4-difluorocyclohexyl)methyl)-4-methyl-1,2,5-oxadiazole-3-carboxamide] | 77 | 190 | –
O=C(CCC(F)(F)F)N[C@@H](c1cnn2cc([C@@H](NC(=O)C3CC3C(F)(F)F)C3CCC(F)(F)CC3)nc2c1)C1CC1 (mixture of isomers) [Example 43, (Trans-1,2)-N—((S)-(7-((R)-cyclopropyl(4,4,4-trifluorobutanamido)methyl)imidazo[1,2-b]pyridazin-2-yl)(4,4-difluorocyclohexyl)methyl)-2-(trifluoromethyl)cyclopropane-1-carboxamide] | 240 | 720 | –
CC(C)n1nccc1C(=O)N[C@H](c1cn2ncc(C(CO)NC(=O)CC3CC(F)(F)C3)cc2n1)C1CCC(F)(F)CC1 (single isomer, unassigned) [Example 532, N—((S)-(7-((R*)-1-(2-(3,3-Difluorocyclobutyl)acetamido)-2-hydroxyethyl)imidazo[1,2-b]pyridazin-2-yl)(4,4-difluorocyclohexyl)methyl)-1-isopropyl-1H-pyrazole-5-carboxamide] | 1500 | – | 2800
[2H]C([2H])([2H])n1nccc1C(=O)N[C@H](c1cn2ncc([C@H](NC(=O)C[C@@H](C)C(F)(F)F)C3CCC3)cc2n1)C1CCC(F)(F)CC1 (relative stereo) [Example 502, N—((S)-(7-((R*)-Cyclobutyl((R*)-4,4,4-trifluoro-3-methylbutanamido)methyl)imidazo[1,2-b]pyridazin-2-yl)(4,4-difluorocyclohexyl)methyl)-1-(methyl-d3)-1H-pyrazole-5-carboxamide] | 160 | 400 | –
O=C(CCC(F)(F)F)N[C@@H](c1cnn2cc([C@@H](NC(=O)[C@@H]3C[C@H]3F)C3CCC(F)(F)CC3)nc2c1)C1CC1 [Example 90, (1S,2R)—N—((S)-(7-((R)-Cyclopropyl(4,4,4-trifluorobutanamido)methyl)imidazo[1,2-b]pyridazin-2-yl)(4,4-difluorocyclohexyl)methyl)-2-fluorocyclopropane-1-carboxamide] | 1500 | ~20000 | –
O=C(CCC(F)(F)F)N[C@@H](c1cnn2cc([C@@H](NC(=O)c3cccc(OCC(F)F)n3)C3CCC(F)(F)CC3)nc2c1)C1CC1 [Example 201, N—((S)-(7-((R)-Cyclopropyl(4,4,4-trifluorobutanamido)methyl)imidazo[1,2-b]pyridazin-2-yl)(4,4-difluorocyclohexyl)methyl)-6-(2,2-difluoroethoxy)picolinamide] | 470 | 2200 | –
Cc1nonc1C(=O)N[C@H](c1cn2ncc([C@H](NC(=O)C(C)CC(F)(F)F)C3CC3)cc2n1)C1CCC(F)(F)CC1 (single isomer, unassigned) [Example 347, N—((S)-(7-((R)-Cyclopropyl((S*)-4,4,4-trifluoro-2-methylbutanamido)methyl)imidazo[1,2-b]pyridazin-2-yl)(4,4-difluorocyclohexyl)methyl)-4-methyl-1,2,5-oxadiazole-3-carboxamide] | 470 | – | 1600
O=C(CCC(F)F)N[C@@H](c1cnn2cc([C@@H](NC(=O)c3nonc3C3CC3)C3CCC(F)(F)CC3)nc2c1)C1CC1 [Example 288, 4-Cyclopropyl-N—((S)-(7-((R)-cyclopropyl(4,4-difluorobutanamido)methyl)imidazo[1,2-b]pyridazin-2-yl)(4,4-difluorocyclohexyl)methyl)-1,2,5-oxadiazole-3-carboxamide] | 71 | 200 | –
CC(C)Oc1nocc1C(=O)N[C@H](c1cn2ncc([C@H](NC(=O)CCC(F)F)C3CC3)cc2n1)C1CCC(F)(F)CC1 [Example 302, N—((S)-(7-((R)-Cyclopropyl(4,4-difluorobutanamido)methyl)imidazo[1,2-b]pyridazin-2-yl)(4,4-difluorocyclohexyl)methyl)-3-isopropoxyisoxazole-4-carboxamide] | 1200 | > 20000 | –
Cc1nonc1C(=O)N[C@H](c1cn2ncc([C@H](NC(=O)COCC(F)F)C3CC3)cc2n1)C1CCC(F)(F)CC1 [Example 304, N—((S)-(7-((R)-Cyclopropyl(2-(2,2-difluoroethoxy)acetamido)methyl)imidazo[1,2-b]pyridazin-2-yl)(4,4-difluorocyclohexyl)methyl)-4-methyl-1,2,5-oxadiazole-3-carboxamide] | 620 | 910 | –
O=C(CC(C(F)(F)F)C(F)(F)F)NC(c1cnn2cc([C@@H](NC(=O)c3ccccc3)C3CCC(F)(F)CC3)nc2c1)C1CC1 (single isomer, unassigned) [Example 16, N—((S)-(7-((R*)-Cyclopropyl(4,4,4-trifluoro-3-(trifluoromethyl)butanamido)methyl)imidazo[1,2-b]pyridazin-2-yl)(4,4-difluorocyclohexyl)methyl)benzamide] | 130 | – | 130
[2H]C([2H])([2H])n1nccc1C(=O)N[C@H](c1cn2ncc(C(NC(=O)CCC(F)(F)F)C3CCC3)cc2n1)C1CCC(F)(F)CC1 (single isomer, unassigned) [Example 492, N—((S)-(7-((R*)-Cyclobutyl(4,4,4-trifluorobutanamido)methyl)imidazo[1,2-b]pyridazin-2-yl)(4,4-difluorocyclohexyl)methyl)-1-(methyl-d3)-1H-pyrazole-5-carboxamide] | 65 | 95 | –
O=C(CCC(F)(F)F)N[C@@H](c1cnn2cc([C@@H](NC(=O)c3nocc3OCC(F)F)C3CCC(F)(F)CC3)nc2c1)C1CC1 [Example 375, N—((S)-(7-((R)-Cyclopropyl(4,4,4-trifluorobutanamido)methyl)imidazo[1,2-b]pyridazin-2-yl)(4,4-difluorocyclohexyl)methyl)-4-(2,2-difluoroethoxy)isoxazole-3-carboxamide] | 43 | 170 | –
CCC(NC(=O)CC1CC(F)(F)C1)c1cnn2cc([C@@H](NC(=O)c3nonc3C3CC3)C3CCC(F)(F)CC3)nc2c1 (single isomer, unassigned) [Example 507, 4-Cyclopropyl-N—((S)-(7-((R*)-1-(2-(3,3-difluorocyclobutyl)acetamido)propyl)imidazo[1,2-b]pyridazin-2-yl)(4,4-difluorocyclohexyl)methyl)-1,2,5-oxadiazole-3-carboxamide] | 56 | 42 | –
O=C(CCC(F)(F)F)N[C@@H](c1cnn2cc([C@@H](NC(=O)c3cccc(C4CC4(F)F)c3)C3CCC(F)(F)CC3)nc2c1)C1CC1 (stereo partly drawn) [Example 164, N—((S)-(7-((R)-Cyclopropyl(4,4,4-trifluorobutanamido)methyl)imidazo[1,2-b]pyridazin-2-yl)(4,4-difluorocyclohexyl)methyl)-3-(2,2-difluorocyclopropyl)benzamide] | 55 | 130 | –
